Test results: the kinase profiling compilation of Christmann-Franck et al. (2016)

What was measured:
Assay in all cases: KINOMEscan competition binding
Conditions in all cases: compound 10.0 µM
CIT (human) = CIT (human) (UniProt O14578)
[1] = molecular target: JAK2 JH1 catalytic (human) (UniProt O60674)
NEK5 (human) = NEK5 (human) (UniProt Q6P3R8)
STK39 (human) = STK39 (human) (UniProt Q9UEW8)
PHKG1 (human) = PHKG1 (human) (UniProt Q16816)
SGK110 (human) = SGK110 (human) (UniProt P0C264)
[2] = system: KIT (human), P10721 [V559D/V654A]
MKNK1 (human) = MKNK1 (human) (UniProt Q9BUB5)
WEE2 (human) = WEE2 (human) (UniProt P0C1S8)
MINK1 (human) = MINK1 (human) (UniProt Q8N4C8)
[3] = system: EGFR (human), P00533 [747-751 del / S ins]
ROS1 (human) = ROS1 (human) (UniProt P08922)
CDK19 (human) = CDK19 (human) (UniProt Q9BWU1)
Chain of CDK19 (human) (Q9BWU1 whole entry, looked up): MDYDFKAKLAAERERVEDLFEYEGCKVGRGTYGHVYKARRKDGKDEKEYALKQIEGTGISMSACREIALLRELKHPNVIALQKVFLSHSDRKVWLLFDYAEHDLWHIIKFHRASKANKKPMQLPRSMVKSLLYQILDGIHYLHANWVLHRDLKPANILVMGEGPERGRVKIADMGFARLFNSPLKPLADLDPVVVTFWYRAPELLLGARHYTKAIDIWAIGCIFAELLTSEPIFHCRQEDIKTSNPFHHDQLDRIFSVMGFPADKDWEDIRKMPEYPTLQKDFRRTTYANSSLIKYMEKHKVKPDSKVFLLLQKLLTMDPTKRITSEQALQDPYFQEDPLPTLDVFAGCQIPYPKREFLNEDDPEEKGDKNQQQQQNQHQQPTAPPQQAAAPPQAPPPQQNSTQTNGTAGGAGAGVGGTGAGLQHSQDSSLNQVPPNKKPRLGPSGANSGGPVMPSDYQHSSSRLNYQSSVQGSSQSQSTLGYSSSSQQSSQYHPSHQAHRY

BMPR1B (human) = BMPR1B (human) (UniProt O00238)
STK32B (human) = STK32B (human) (UniProt Q9NY57)
TNK1 (human) = TNK1 (human) (UniProt Q13470)
CSNK2A1 (human) = CSNK2A1 (human) (UniProt P68400)
SLK (human) = SLK (human) (UniProt Q9H2G2)
PDPK1 (human) = PDPK1 (human) (UniProt O15530)
CSNK1A1L (human) = CSNK1A1L (human) (UniProt Q8N752)
KIT (human) = KIT (human) (UniProt P10721)
TGFBR1 (human) = TGFBR1 (human) (UniProt P36897)
Chain of TGFBR1 (human) (P36897 whole entry, looked up): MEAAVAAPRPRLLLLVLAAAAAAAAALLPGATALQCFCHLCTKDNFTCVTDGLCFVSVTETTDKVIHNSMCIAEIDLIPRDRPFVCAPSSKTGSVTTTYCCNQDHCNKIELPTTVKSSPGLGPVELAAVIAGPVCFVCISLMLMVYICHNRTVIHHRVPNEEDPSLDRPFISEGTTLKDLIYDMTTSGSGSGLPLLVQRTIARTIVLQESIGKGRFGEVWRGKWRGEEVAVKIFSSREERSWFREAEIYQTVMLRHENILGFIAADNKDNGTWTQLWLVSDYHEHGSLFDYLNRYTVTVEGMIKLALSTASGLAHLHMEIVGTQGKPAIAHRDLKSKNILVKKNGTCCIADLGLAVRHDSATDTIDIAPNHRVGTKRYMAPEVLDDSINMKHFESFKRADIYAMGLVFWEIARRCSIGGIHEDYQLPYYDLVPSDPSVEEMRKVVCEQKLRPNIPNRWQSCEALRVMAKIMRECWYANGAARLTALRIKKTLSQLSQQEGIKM

RPS6KA1 KD2 (human) = RPS6KA1 KD2 (human) (UniProt Q15418)
MST4 (human) = MST4 (human) (UniProt Q9P289)
MAP3K9 (human) = MAP3K9 (human) (UniProt P80192)
TSSK1B (human) = TSSK1B (human) (UniProt Q9BXA7)
EPHA2 (human) = EPHA2 (human) (UniProt P29317)
ULK3 (human) = ULK3 (human) (UniProt Q6PHR2)
MARK3 (human) = MARK3 (human) (UniProt P27448)
Chain of MARK3 (human) (P27448 whole entry, looked up): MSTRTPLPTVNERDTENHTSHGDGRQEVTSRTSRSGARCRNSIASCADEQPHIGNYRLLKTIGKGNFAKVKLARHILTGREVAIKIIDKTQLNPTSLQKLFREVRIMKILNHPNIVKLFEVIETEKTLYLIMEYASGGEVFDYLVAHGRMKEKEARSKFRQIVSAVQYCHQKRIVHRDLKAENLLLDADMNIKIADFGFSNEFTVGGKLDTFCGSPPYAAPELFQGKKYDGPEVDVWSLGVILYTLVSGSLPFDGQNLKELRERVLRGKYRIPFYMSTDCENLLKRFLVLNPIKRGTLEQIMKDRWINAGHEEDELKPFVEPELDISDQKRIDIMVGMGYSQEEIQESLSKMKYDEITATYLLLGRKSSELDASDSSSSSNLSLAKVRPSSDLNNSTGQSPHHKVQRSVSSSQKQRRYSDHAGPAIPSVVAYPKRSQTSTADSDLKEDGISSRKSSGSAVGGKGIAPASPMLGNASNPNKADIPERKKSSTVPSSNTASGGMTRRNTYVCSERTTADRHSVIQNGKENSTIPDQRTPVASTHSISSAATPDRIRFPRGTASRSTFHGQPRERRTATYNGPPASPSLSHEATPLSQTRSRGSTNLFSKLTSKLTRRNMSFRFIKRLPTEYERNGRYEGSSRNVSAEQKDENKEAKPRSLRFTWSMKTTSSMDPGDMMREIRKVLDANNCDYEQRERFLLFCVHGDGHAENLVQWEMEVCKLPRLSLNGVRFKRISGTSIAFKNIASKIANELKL

MAPK13 (human) = MAPK13 (human) (UniProt O15264)
CDKL2 (human) = CDKL2 (human) (UniProt Q92772)
Chain of CDKL2 (human) (Q92772 whole entry, looked up): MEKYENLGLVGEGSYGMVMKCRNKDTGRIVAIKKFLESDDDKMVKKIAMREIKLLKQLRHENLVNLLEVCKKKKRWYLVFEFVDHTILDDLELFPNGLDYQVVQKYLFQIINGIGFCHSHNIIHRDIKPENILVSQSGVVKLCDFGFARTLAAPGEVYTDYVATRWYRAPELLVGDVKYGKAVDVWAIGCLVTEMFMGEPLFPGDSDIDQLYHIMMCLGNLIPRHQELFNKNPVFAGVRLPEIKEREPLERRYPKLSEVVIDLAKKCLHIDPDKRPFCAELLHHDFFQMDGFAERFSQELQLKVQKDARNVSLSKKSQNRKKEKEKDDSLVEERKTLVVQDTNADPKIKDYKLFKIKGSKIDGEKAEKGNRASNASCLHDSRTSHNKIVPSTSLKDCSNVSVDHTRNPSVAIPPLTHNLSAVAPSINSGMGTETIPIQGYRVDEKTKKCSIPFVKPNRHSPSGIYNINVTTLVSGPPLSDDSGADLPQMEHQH

WEE1 (human) = WEE1 (human) (UniProt P30291)
Chain of WEE1 (human) (P30291 whole entry, looked up): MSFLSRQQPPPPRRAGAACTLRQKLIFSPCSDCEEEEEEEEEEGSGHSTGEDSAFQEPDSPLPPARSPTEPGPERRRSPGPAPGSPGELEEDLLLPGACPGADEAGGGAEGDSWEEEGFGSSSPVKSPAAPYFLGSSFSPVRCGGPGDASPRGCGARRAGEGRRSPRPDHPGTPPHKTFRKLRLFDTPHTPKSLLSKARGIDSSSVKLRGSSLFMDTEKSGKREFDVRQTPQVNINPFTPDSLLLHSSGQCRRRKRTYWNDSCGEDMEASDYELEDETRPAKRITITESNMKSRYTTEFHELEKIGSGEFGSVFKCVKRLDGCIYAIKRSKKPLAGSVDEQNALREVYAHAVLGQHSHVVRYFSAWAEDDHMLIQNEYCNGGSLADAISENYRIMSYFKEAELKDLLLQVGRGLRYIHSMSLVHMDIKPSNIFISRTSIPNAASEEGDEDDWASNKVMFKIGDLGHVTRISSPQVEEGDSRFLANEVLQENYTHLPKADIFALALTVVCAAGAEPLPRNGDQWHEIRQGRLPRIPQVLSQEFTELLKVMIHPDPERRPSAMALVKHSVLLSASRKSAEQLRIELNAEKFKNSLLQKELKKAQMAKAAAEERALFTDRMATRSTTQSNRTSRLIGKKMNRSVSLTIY

MAPK9 (human) = MAPK9 (human) (UniProt P45984)
DYRK1B (human) = DYRK1B (human) (UniProt Q9Y463)
FGFR2 (human) = FGFR2 (human) (UniProt P21802)
NUAK1 (human) = NUAK1 (human) (UniProt O60285)
Chain of NUAK1 (human) (O60285 whole entry, looked up): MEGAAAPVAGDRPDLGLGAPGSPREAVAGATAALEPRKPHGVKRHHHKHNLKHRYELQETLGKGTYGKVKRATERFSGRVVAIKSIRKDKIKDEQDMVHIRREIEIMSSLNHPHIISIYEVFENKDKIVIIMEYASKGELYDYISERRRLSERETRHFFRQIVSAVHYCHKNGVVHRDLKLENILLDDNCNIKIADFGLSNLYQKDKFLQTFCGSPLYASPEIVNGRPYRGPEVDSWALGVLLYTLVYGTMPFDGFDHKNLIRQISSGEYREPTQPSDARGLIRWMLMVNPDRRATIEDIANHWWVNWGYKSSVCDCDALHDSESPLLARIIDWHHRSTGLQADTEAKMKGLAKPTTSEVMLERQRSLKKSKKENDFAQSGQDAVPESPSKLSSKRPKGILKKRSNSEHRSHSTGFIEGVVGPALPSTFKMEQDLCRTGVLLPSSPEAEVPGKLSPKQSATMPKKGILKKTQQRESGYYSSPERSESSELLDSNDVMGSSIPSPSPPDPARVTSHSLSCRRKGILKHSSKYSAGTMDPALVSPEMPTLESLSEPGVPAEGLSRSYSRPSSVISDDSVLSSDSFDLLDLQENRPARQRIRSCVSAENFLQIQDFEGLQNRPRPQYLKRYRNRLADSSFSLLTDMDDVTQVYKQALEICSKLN

ULK1 (human) = ULK1 (human) (UniProt O75385)
MAK (human) = MAK (human) (UniProt P20794)
MAP2K3 (human) = MAP2K3 (human) (UniProt P46734)
Chain of MAP2K3 (human) (P46734 whole entry, looked up): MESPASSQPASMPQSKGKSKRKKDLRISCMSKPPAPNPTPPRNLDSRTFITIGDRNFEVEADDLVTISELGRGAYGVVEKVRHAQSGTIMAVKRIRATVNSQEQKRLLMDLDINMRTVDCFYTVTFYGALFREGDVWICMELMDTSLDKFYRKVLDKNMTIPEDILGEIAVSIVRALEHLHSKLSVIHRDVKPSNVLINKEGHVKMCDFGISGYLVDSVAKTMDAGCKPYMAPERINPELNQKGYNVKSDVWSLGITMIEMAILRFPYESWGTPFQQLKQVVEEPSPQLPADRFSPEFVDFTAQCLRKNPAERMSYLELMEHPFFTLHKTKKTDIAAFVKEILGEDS

Chain of JAK2 JH1 catalytic (human) (O60674 whole entry, looked up): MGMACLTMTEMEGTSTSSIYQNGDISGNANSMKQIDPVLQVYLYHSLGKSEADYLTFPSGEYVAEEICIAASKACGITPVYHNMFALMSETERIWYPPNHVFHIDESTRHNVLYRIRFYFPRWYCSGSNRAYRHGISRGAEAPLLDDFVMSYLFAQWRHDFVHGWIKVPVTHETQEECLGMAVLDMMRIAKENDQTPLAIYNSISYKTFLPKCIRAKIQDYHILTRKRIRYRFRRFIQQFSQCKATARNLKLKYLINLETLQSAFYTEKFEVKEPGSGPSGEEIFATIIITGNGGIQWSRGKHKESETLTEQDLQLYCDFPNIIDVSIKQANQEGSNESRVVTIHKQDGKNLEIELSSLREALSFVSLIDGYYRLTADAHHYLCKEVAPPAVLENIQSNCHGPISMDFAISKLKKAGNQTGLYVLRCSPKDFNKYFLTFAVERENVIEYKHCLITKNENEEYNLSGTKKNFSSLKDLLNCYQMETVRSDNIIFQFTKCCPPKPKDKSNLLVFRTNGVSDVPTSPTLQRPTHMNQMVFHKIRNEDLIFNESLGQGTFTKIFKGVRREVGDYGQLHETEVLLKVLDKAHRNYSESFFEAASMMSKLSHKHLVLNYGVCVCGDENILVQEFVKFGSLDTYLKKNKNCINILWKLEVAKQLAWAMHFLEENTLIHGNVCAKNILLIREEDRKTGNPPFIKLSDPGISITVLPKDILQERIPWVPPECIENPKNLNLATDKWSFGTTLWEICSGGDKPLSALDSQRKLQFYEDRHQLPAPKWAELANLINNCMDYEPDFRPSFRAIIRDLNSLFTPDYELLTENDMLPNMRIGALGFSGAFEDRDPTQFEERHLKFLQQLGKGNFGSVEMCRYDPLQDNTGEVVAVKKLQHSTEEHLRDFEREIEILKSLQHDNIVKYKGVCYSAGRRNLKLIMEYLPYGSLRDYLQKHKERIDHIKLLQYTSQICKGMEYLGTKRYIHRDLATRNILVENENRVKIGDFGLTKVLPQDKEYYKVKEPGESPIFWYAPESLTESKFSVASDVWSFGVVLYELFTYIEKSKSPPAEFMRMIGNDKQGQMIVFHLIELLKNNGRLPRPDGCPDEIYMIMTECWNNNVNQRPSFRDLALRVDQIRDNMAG

Work on `O=C(Nc1cccc(Nc2ncc(Br)c(NCCc3cnc[nH]3)n2)c1)N1CCCC1` yielded a kinase still bound, per cent of control (CIT (human)) of 0.75%, a kinase still bound, per cent of control [1] of 0% and a kinase still bound, per cent of control (NEK5 (human)) of 0.5%. For the same compound, the kinase still bound, per cent of control (STK39 (human)) was 63%, the kinase still bound, per cent of control (PHKG1 (human)) was 2.3% and the kinase still bound, per cent of control (SGK110 (human)) was 0.95%. The kinase still bound, per cent of control [2] was 15%, the kinase still bound, per cent of control (MKNK1 (human)) was 100% and the kinase still bound, per cent of control (WEE2 (human)) was 36%. For the same compound, the kinase still bound, per cent of control (MINK1 (human)) was 4.2%, the kinase still bound, per cent of control [3] was 67% and the kinase still bound, per cent of control (ROS1 (human)) was 97%. It also gave a kinase still bound, per cent of control (CDK19 (human)) of 100%, a kinase still bound, per cent of control (BMPR1B (human)) of 0% and a kinase still bound, per cent of control (STK32B (human)) of 100%. It also gave a kinase still bound, per cent of control (TNK1 (human)) of 1.4%, a kinase still bound, per cent of control (CSNK2A1 (human)) of 0.3% and a kinase still bound, per cent of control (SLK (human)) of 0.35%. It also gave a kinase still bound, per cent of control (PDPK1 (human)) of 2.4%, a kinase still bound, per cent of control (CSNK1A1L (human)) of 32% and a kinase still bound, per cent of control (KIT (human)) of 0.15%. For the same compound, the kinase still bound, per cent of control (TGFBR1 (human)) was 77%, the kinase still bound, per cent of control (RPS6KA1 KD2 (human)) was 13% and the kinase still bound, per cent of control (MST4 (human)) was 0.4%. It also gave a kinase still bound, per cent of control (MAP3K9 (human)) of 0.45%, a kinase still bound, per cent of control (TSSK1B (human)) of 48% and a kinase still bound, per cent of control (EPHA2 (human)) of 60%. It also gave a kinase still bound, per cent of control (ULK3 (human)) of 0.1%, a kinase still bound, per cent of control (MARK3 (human)) of 0.3% and a kinase still bound, per cent of control (MAPK13 (human)) of 11%. The kinase still bound, per cent of control (CDKL2 (human)) was 4.7%, the kinase still bound, per cent of control (WEE1 (human)) was 52% and the kinase still bound, per cent of control (MAPK9 (human)) was 0.3%. It also gave a kinase still bound, per cent of control (DYRK1B (human)) of 35%, a kinase still bound, per cent of control (FGFR2 (human)) of 4.6% and a kinase still bound, per cent of control (NUAK1 (human)) of 0%. The kinase still bound, per cent of control (ULK1 (human)) was 0.05%, the kinase still bound, per cent of control (MAK (human)) was 100% and the kinase still bound, per cent of control (MAP2K3 (human)) was 23%.

Compound `CCN(CC)CCCCNc1ncc2c(n1)N(C)C(=O)N(c1c(Cl)c(OC)cc(OC)c1Cl)C2` has a kinase still bound, per cent of control (CIT (human)) of 100%, a kinase still bound, per cent of control [1] of 100% and a kinase still bound, per cent of control (NEK5 (human)) of 100%. For the same compound, the kinase still bound, per cent of control (STK39 (human)) was 100%, the kinase still bound, per cent of control (PHKG1 (human)) was 100% and the kinase still bound, per cent of control (SGK110 (human)) was 100%. The kinase still bound, per cent of control [2] was 100%, the kinase still bound, per cent of control (MKNK1 (human)) was 100% and the kinase still bound, per cent of control (WEE2 (human)) was 100%. The kinase still bound, per cent of control (MINK1 (human)) was 100%, the kinase still bound, per cent of control [3] was 100% and the kinase still bound, per cent of control (ROS1 (human)) was 100%. The kinase still bound, per cent of control (CDK19 (human)) was 100%, the kinase still bound, per cent of control (BMPR1B (human)) was 100% and the kinase still bound, per cent of control (STK32B (human)) was 100%. It also gave a kinase still bound, per cent of control (TNK1 (human)) of 100%, a kinase still bound, per cent of control (CSNK2A1 (human)) of 100% and a kinase still bound, per cent of control (SLK (human)) of 100%. It also gave a kinase still bound, per cent of control (PDPK1 (human)) of 100%, a kinase still bound, per cent of control (CSNK1A1L (human)) of 100% and a kinase still bound, per cent of control (KIT (human)) of 6.7%. The kinase still bound, per cent of control (TGFBR1 (human)) was 100%, the kinase still bound, per cent of control (RPS6KA1 KD2 (human)) was 100% and the kinase still bound, per cent of control (MST4 (human)) was 11%. The kinase still bound, per cent of control (MAP3K9 (human)) was 100%, the kinase still bound, per cent of control (TSSK1B (human)) was 100% and the kinase still bound, per cent of control (EPHA2 (human)) was 100%. It also gave a kinase still bound, per cent of control (ULK3 (human)) of 100%, a kinase still bound, per cent of control (MARK3 (human)) of 100% and a kinase still bound, per cent of control (MAPK13 (human)) of 100%. The kinase still bound, per cent of control (CDKL2 (human)) was 100%, the kinase still bound, per cent of control (WEE1 (human)) was 100% and the kinase still bound, per cent of control (MAPK9 (human)) was 100%. It also gave a kinase still bound, per cent of control (DYRK1B (human)) of 100%, a kinase still bound, per cent of control (FGFR2 (human)) of 2.6% and a kinase still bound, per cent of control (NUAK1 (human)) of 100%. The kinase still bound, per cent of control (ULK1 (human)) was 100%, the kinase still bound, per cent of control (MAK (human)) was 100% and the kinase still bound, per cent of control (MAP2K3 (human)) was 100%.
